Test results reported in US11053226B2, “KRAS G12C inhibitors and methods of using the same” (Amgen Inc., priority 2018, dated 2021).
Where two headings read alike, the source gives them in different places.

What was measured:
[1] = target: GDP-bound KRAS protein (aa 1-169), containing both G12C and C118A amino acid substitutions (Homo sapiens (Human), UniProt P01116, C118A/G12C); test: Coupled Nucleotide Exchange Assay; type: biochemical
Protocol: For compounds in Table 9, the following assay conditions were employed:
Coupled Nucleotide Exchange Assay:
The assay plates were then read on a PerkinElmer EnVision Multilabel Reader, using AlphaScreen® technology, and data were analyzed using a 4-parameter logistic model to calculate IC50 values.

[2] = test system: Phosphorylation of ERK1/2 in MIA PaCa-2 cells; test: Phospho-ERK1/2 MSD Assay; type: cell-based; conditions: Homo sapiens, MiaPaCa-2 cells
[3] = test system: Phosphorylation of ERK1/2 in A549 cells; test: Phospho-ERK1/2 MSD Assay (A549); type: cell-based; conditions: Homo sapiens
[4] = read-out: Coupled Exchange IC50 (5 min), 5 min compound pre-incubation
[5] = read-out: Coupled Exchange IC50 (2 h), 2 h compound pre-incubation
[6] = read-out: Coupled Exchange IC50 (20 h), 20 h compound pre-incubation
[7] = MIA PaCa-2, 4 h, read-out: pERK IC50 (4 h, MiaPaCa-2), 4 h compound treatment
[8] = A549, 4 h, read-out: pERK IC50 (4 h, A549), 4 h compound treatment
[9] = MIA PaCa-2, read-out: pERK IC50 (4 h), 4 h compound treatment
[10] = read-out: pERK IC50 (4 h), 4 h compound treatment

Sequence of GDP-bound KRAS protein (aa 1-169), containing both G12C and C118A amino acid substitutions (P01116 other isoform, or with tags, fused parts or gaps G12C/C118A): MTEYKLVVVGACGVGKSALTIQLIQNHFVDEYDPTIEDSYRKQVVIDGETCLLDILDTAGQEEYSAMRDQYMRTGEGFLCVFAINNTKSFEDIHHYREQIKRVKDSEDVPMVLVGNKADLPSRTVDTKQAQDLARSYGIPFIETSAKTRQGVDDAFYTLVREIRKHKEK

SMILES	IC50 [1, 4] [nM]	IC50 [1, 5] [nM]	IC50 [1, 6] [nM]	IC50 [2, 7] [nM]	IC50 [3, 8] [nM]	IC50 [2, 9] [nM]	IC50 [3, 10] [nM]
C=CC(=O)N1CC(NC(=O)Cn2c(C3CC3)c(C(=O)N3CCc4c(ccnc4OC)C3)c3cc(Cl)cc(C)c32)C1 [Example 1-4, 2-(5-Chloro-2-cyclopropyl-3-((5-methoxy-3,4-dihydro-2,6-naphthyridin-2(1H)-yl)carbonyl)-7-methyl-1H-indol-1-yl)-N-(1-(2-propenoyl)-3-azetidinyl)acetamide]	270	80	10	150	> 100000		
C=CC(=O)N1CC(NC(=O)Cn2c(C)c(-c3ccccc3N3CCOCC3)c3cc(Cl)ccc32)C1 [Example 49]		720				4670	7680
C=CC(=O)N1CC(NC(=O)Cn2c(C3CC3)c(C(=O)N3CCOC4(CCC4)C3)c3cc(Cl)cc(C)c32)C1 [Example 1-6, 2-(5-Chloro-2-cyclopropyl-7-methyl-3-(5-oxa-8-azaspiro[3.5]nonan-8-ylcarbonyl)-1H-indol-1-yl)-N-(1-(2-propenoyl)-3-azetidinyl)acetamide]		720		670	> 100000		
C=CC(=O)N1CC(NC(=O)Cn2c(C(=O)OC)c(I)c3cc(Br)ccc32)C1 [Example 111]		1980	350			25400	> 100000
C=CC(=O)N1CC(NC(=O)Cn2cc(-c3c(O)cccc3F)c3cc(Cl)ccc32)C1 [Example 144]		3840	750			46800	> 100000
C=CC(=O)N1CC(N(C)C(=O)Cn2c(C3CC3)c(C(=O)N3CCc4c(cccc4OC)C3)c3cc(Cl)cc(C)c32)C1 [Example 4-3, 2-(5-Chloro-2-cyclopropyl-3-((5-methoxy-3,4-dihydro-2(1H)-isoquinolinyl)carbonyl)-7-methyl-1H-indol-1-yl)-N-methyl-N-(1-(2-propenoyl)-3-azetidinyl)acetamide]		120		150	74100		
C=CC(=O)N1CC(NC(=O)Cn2c(C)c(-c3ccccc3OC(C)C)c3cc(Cl)ccc32)C1 [Example 113]		900				26200	> 100000
C=CC(=O)N1CC(NC(=O)Cn2c(C)c(-c3cccc4ncccc34)c3cc(Cl)ccc32)C1 [Example 147]		2600	520			49600	> 100000
C=CC(=O)N1CC(NC(=O)Cn2c(C3CC3)c(C(=O)N3CCCC(C)(C)C3)c3cc(Cl)cc(C)c32)C1 [Example 11]		660		1600	36400		
C=CC(=O)N1CC(NC(=O)Cn2c(C)c(-c3cccnc3OC(C)C)c3cc(Br)ccc32)C1 [Example 115]		2780				28100	> 100000
C=CC(=O)N1CC(N(C)C(=O)Cn2c(C)c(C(=O)N3CCc4c(cccc4OC)C3)c3cc(Br)cc(C)c32)C1 [Example 4-5, 2-(5-Bromo-3-((5-methoxy-3,4-dihydro-2(1H)-isoquinolinyl)carbonyl)-2,7-dimethyl-1H-indol-1-yl)-N-methyl-N-(1-(2-propenoyl)-3-azetidinyl)acetamide]		90		270	> 100000		
C=CC(=O)N1CC(NC(=O)Cn2c(C)c(C(=O)N3CCc4ccccc4[C@@H]3C)c3cc(Br)cc(C)c32)C1 [Example 2-2-2, 2-(5-Bromo-2,7-dimethyl-3-(((1S)-1-methyl-3,4-dihydro-2(1H)-isoquinolinyl)carbonyl)-1H-indol-1-yl)-N-(1-(2-propenoyl)-3-azetidinyl)acetamide]		420		3010	61000		
C=CC(=O)N1CC(NC(=O)Cn2c3c(c4cc(Br)ccc42)CCCC3)C1 [Example 160]		4950	1070			58300	> 100000
C=CC(=O)N1CC(NC(=O)Cn2cc(-c3ccccc3C)c3cc(Cl)ccc32)C1 [Example 78]	33100	5490	1200			11700	> 100000
C=CC(=O)N1CC(NC(=O)Cn2c(C)c(C(=O)N3CCc4c(cccc4OC)C3)c3cc(Br)cc(C)c32)C1 [Example 2-1, 2-(5-Bromo-3-((5-methoxy-3,4-dihydro-2(1H)-isoquinolinyl)carbonyl)-2,7-dimethyl-1H-indol-1-yl)-N-(1-(2-propenoyl)-3-azetidinyl)acetamide]		110	110	300	> 100000		
C=CC(=O)N1CC(NC(=O)Cn2cc(-c3cccc4ccccc34)c3cc(Br)cc(C)c32)C1 [Example 110]		4390	1200			24900	42100
C=CC(=O)N1CC(NC(=O)Cn2c(C3CC3)c(C(=O)N3CCOC(C)(C)C3)c3cc(Cl)cc(C)c32)C1 [Example 23]		950		2350	> 100000		
C=CC(=O)N1CC(NC(=O)Cn2c(C(=O)NCc3ccccc3CN(C)C)cc3cc(Br)ccc32)C1 [Example 88]		3260	720			14900	> 100000
